Laboratory results reported in patent US6759228B2, “Alkaline protease” (Kao Corporation, priority 1997, dated 2004).
Where two headings read alike, the source gives them in different places. *1 amine or outer side, *2 acyl side, *3 side chain or, on linkers, in order; H or OH if unused. Where a SMILES comes first, the peptide text is derived from it. CO = O=C([*:1])[*:2]

Legend:
KP43 protease [1] = assay type: biochemical, Bacillus sp. KSM-KP43; settings: pH 7
KP1790 protease [2] = assay type: biochemical, Bacillus sp. KSM-KP1790; settings: pH 7
KP9860 protease [3] = assay: Effects of inhibitors: residual activity, casein method; assay type: biochemical, Bacillus sp. KSM-KP9860
KP43 protease [4] = assay type: biochemical, Bacillus sp. KSM-KP43
KP1790 protease [5] = assay: Effects of metal ions: residual activity, casein method; assay type: biochemical, Bacillus sp. KSM-KP1790
KP9860 protease [6] = assay type: biochemical, Bacillus sp. KSM-KP9860
[7] = test system: 3 kinds of proteases (KP43, KP1790, KP9860); assay: Effects of metal ions, summary for the 3 kinds of proteases; assay type: biochemical, Bacillus sp.; settings: 1 mmol/L metal salt, 20 mmol/L boric acid buffer (pH 10), 30° C., 20 minutes
[8] = test system: all three kinds of proteases (KP43, KP1790, KP9860); assay type: biochemical, Bacillus sp.; settings: pH 7
KP43 protease [9] = assay: Effects of surface active agents: residual activity, casein method; assay type: biochemical, Bacillus sp. KSM-KP43; settings: 1% surfactant, 100 mM borate buffer (pH 10.0), 40° C., 4 hours; no treatment = 100%
Description: (§1) After 1 mL of 50 mmol/L of various buffer solutions containing 1% (w/v) Casein (Hammerstein: product of Merck Inc.) was maintained at 40° C. for 5 minutes, 0.1 mL of an enzyme solution was added to the solution, followed by incubation at 40° C. for 10 minutes. 2 mL of a TCA solution (0.11 mol/L trichloroacetic acid: 0.22 mol/L sodium acetate: 0.33 mol/L acetic acid) was added to stop the reaction and the mixture was left to stand at room temperature for 10 minutes. Subsequently, acid-denatured protein was filtered (No. 2 filter paper: product of Whattmann). To 0.5 mL of the filtrate, 2.5 mL of alkaline copper reagent (1% (w/v) sodium potassium tartrate: 1% (w/v) copper sulfate: 2% (w/v) sodium carbonate, 0.1 mol/L sodium hydroxide=1:1:100 (v/v)) was added, and after the solution was maintained at 30° C. for 10 minutes, 0.25 mL of diluted phenol reagent (phenol reagent (product of Kanto Chemical) diluted two-fold with deionized water) was added, and after being maintained at 30° C. for 30 minutes, the solution was subjected to an absorbance measurement at 660 nm. The following solution was used as a blank: to the above-described system of enzyme reaction, a reaction termination solution was mixed and then the enzyme solution was added.
(§2) An enzyme solution (7.0×10^−4 mP. U.) was added to 100 mmol/L boric acid buffer solution containing dissolved surfactants in an amount of 1%, and the resultant solution was incubated at 40° C. for 4 hours. The solution was diluted 20-fold with 50 mmol/L boric acid buffer solution (pH 10.0), and residual activity was measured using casein as a substrate.
(§3) Each protease was treated with a variety of 1% surface active agent at 40° C. for 4 hours in […], and residual activity was measured. […] Accordingly, the enzymes are considered to be useful as a detergent component containing surfactants.

KP1790 protease [10] = assay: as above; assay type: biochemical, Bacillus sp. KSM-KP1790; settings: 1% surfactant, 100 mM borate buffer (pH 10.0), 40° C., 4 hours; no treatment = 100%
KP9860 protease [11] = assay: as above; assay type: biochemical, Bacillus sp. KSM-KP9860; settings: 1% surfactant, 100 mM borate buffer (pH 10.0), 40° C., 4 hours; no treatment = 100%
Description: as §1, §2, §3

[12] = inhibitor 5 mM, 10 mmol/L phosphoric acid buffer (pH 7.0), 30° C., 20 minutes, no inhibitor = 100%
[13] = 1 mM metal salt, 20 mM borate buffer (pH 10.0), 30° C., 20 minutes, no metal salt = 100%
[14] = inhibitor 0.1 mM, 10 mmol/L phosphoric acid buffer (pH 7.0), 30° C., 20 minutes, no inhibitor = 100%

O[C@H](CS)[C@H](O)CS (racemic) [DTT, dithiothreitol]
Residual activity (%) KP43 (KP43 protease [1]): 104% | Residual activity (%) KP1790 (KP1790 protease [2]): 102% | Residual activity (%) KP9860 (KP9860 protease [3]; [12]): 105%

O=[N+]([O-])[O-].[Ag+] [AgNO3, silver nitrate]
Residual activity (%) KP43 (KP43 protease [4]; [13]): 66% | Residual activity (%) KP1790 (KP1790 protease [5]; [13]): 70% | Residual activity (%) KP9860 (KP9860 protease [6]; [13]): 45% | effect of metal salt on activity [7]: inhibited

CC(C)[C@H](NC(=O)[C@H](CCCNC(=N)N)NC(=O)N[C@@H](Cc1ccccc1)C(=O)O)C(=O)N[C@H](C=O)CCCNC(=N)N [Antipine] ({Phe-CO}-Arg-Val-Arg-aldehyde)
Residual activity (%) KP43 (KP43 protease [1]): 103% | Residual activity (%) KP1790 (KP1790 protease [2]): 99% | Residual activity (%) KP9860 (KP9860 protease [3]; [14]): 97% | effect of inhibitor on activity [8]: not found

[Ca+2].[Cl-].[Cl-] [CaCl2, calcium chloride]
Residual activity (%) KP43 (KP43 protease [4]; pH 10): 97% | Residual activity (%) KP1790 (KP1790 protease [5]; pH 10): 95% | Residual activity (%) KP9860 (KP9860 protease [6]; pH 10): 101%

CC(C)C[C@H](NC(=O)[C@@H](NC(=O)N[C@@H](Cc1ccccc1)C(=O)O)[C@@H]1CCN=C(N)N1)C(=O)N[C@H](C=O)Cc1ccccc1 [Chymostatin]
Residual activity (%) KP43 (KP43 protease [1]): 87% | Residual activity (%) KP1790 (KP1790 protease [2]): 87% | Residual activity (%) KP9860 (KP9860 protease [3]; pH 7): 80% | effect of inhibitor on activity [8]: inhibited

[Cl][Cu][Cl] [CuCl2]
Residual activity (%) KP43 (KP43 protease [4]; [13]): 91% | Residual activity (%) KP1790 (KP1790 protease [5]; [13]): 96% | Residual activity (%) KP9860 (KP9860 protease [6]; [13]): 94%

CC(C)C[C@H](NC(=O)[C@H]1O[C@@H]1C(=O)O)C(=O)NCCCCN=C(N)N [E-64]
Residual activity (%) KP43 (KP43 protease [1]): 104% | Residual activity (%) KP1790 (KP1790 protease [2]): 99% | Residual activity (%) KP9860 (KP9860 protease [3]; pH 7): 103%

O=C(O)CN(CCN(CC(=O)O)CC(=O)O)CC(=O)O [EDTA, ethylenediaminetetraacetic acid]
Residual activity (%) KP43 (KP43 protease [1]): 110% | Residual activity (%) KP1790 (KP1790 protease [2]): 97% | Residual activity (%) KP9860 (KP9860 protease [3]; [12]): 101%

O=C(O)CN(CCOCCOCCN(CC(=O)O)CC(=O)O)CC(=O)O [EGTA, ethyleneglycoltetraacetic acid]
Residual activity (%) KP43 (KP43 protease [1]): 92% | Residual activity (%) KP1790 (KP1790 protease [2]): 91% | Residual activity (%) KP9860 (KP9860 protease [3]; [12]): 90%

CC(C)C[C@H](NC(=O)N[C@H](C(=O)N[C@@H](CCC(N)=O)C(=O)N[C@@H](C)C=O)[C@@H]1CCNC(=N)N1)C(=O)O [Elastatinal]
Residual activity (%) KP43 (KP43 protease [1]): 99% | Residual activity (%) KP1790 (KP1790 protease [2]): 102% | Residual activity (%) KP9860 (KP9860 protease [3]; [14]): 102%

[Cl][Fe]([Cl])[Cl] [FeCl3]
Residual activity (%) KP43 (KP43 protease [4]; [13]): 93% | Residual activity (%) KP1790 (KP1790 protease [5]; [13]): 113% | Residual activity (%) KP9860 (KP9860 protease [6]; [13]): 96%

[Cl][Hg][Cl] [HgCl2, mercury chloride]
Residual activity (%) KP43 (KP43 protease [4]; [13]): 38% | Residual activity (%) KP1790 (KP1790 protease [5]; [13]): 37% | Residual activity (%) KP9860 (KP9860 protease [6]; [13]): 33% | effect of metal salt on activity [7]: inhibited

CC(=O)N[C@@H](CC(C)C)C(=O)N[C@@H](CC(C)C)C(=O)N[C@H](C=O)CCCNC(=N)N [Leupeptin]
Residual activity (%) KP43 (KP43 protease [1]): 102% | Residual activity (%) KP1790 (KP1790 protease [2]): 101% | Residual activity (%) KP9860 (KP9860 protease [3]; pH 7): 93% | effect of inhibitor on activity [8]: not found

[Cl-].[Cl-].[Mg+2] [MgCl2]
Residual activity (%) KP43 (KP43 protease [4]; [13]): 92% | Residual activity (%) KP1790 (KP1790 protease [5]; [13]): 103% | Residual activity (%) KP9860 (KP9860 protease [6]; [13]): 100%

CCN1C(=O)C=CC1=O [NEM, N-ethylmaleimide]
Residual activity (%) KP43 (KP43 protease [1]): 97% | Residual activity (%) KP1790 (KP1790 protease [2]): 100% | Residual activity (%) KP9860 (KP9860 protease [3]; pH 7): 100%

CCCCCCCCCCCCOS(=O)(=O)[O-].[Na+] [Na dodecyl sulfate (SDS), Na dodecyl sulfate]
Residual activity KP43 (KP43 protease [9]): 104% | Residual activity KP1790 (KP1790 protease [10]): 97% | Residual activity KP9860 (KP9860 protease [11]): 103%

[Cl][Ni][Cl] [NiCl2]
Residual activity (%) KP43 (KP43 protease [4]; [13]): 92% | Residual activity (%) KP1790 (KP1790 protease [5]; [13]): 95% | Residual activity (%) KP9860 (KP9860 protease [6]; [13]): 96%

O=C(O)c1cc[c]([Hg][Cl])cc1 [PCMB, p-chloromercury benzoate]
Residual activity (%) KP43 (KP43 protease [1]): 125% | Residual activity (%) KP1790 (KP1790 protease [2]): 115% | Residual activity (%) KP9860 (KP9860 protease [3]; pH 7): 126%

O=S(=O)(F)Cc1ccccc1 [PMSF, phenylmethanesulfonyl fluoride]
Residual activity (%) KP43 (KP43 protease [1]): 0% | Residual activity (%) KP1790 (KP1790 protease [2]): 0% | Residual activity (%) KP9860 (KP9860 protease [3]; pH 7): 0% | effect of inhibitor on activity [8]: inhibited

[Cl-].[Cl-].[Zn+2] [ZnCl2]
Residual activity (%) KP43 (KP43 protease [4]; [13]): 85% | Residual activity (%) KP1790 (KP1790 protease [5]; [13]): 94% | Residual activity (%) KP9860 (KP9860 protease [6]; [13]): 91%

c1cnc2c(c1)ccc1cccnc12 [o-Phenanthroline]
Residual activity (%) KP43 (KP43 protease [1]): 100% | Residual activity (%) KP1790 (KP1790 protease [2]): 103% | Residual activity (%) KP9860 (KP9860 protease [3]; [12]): 100%

CoCl2
Residual activity (%) KP43 (KP43 protease [4]; pH 10): 91% | Residual activity (%) KP1790 (KP1790 protease [5]; pH 10): 101% | Residual activity (%) KP9860 (KP9860 protease [6]; pH 10): 98%

Na alkyl sulfate [Na alkyl sulfate (AS)]
Residual activity KP43 (KP43 protease [9]): 113% | Residual activity KP1790 (KP1790 protease [10]): 107% | Residual activity KP9860 (KP9860 protease [11]): 107%

Na linear alkylbenzenesulfonate [Na linear alkylbenzenesulfonate (LAS)]
Residual activity KP43 (KP43 protease [9]): 100% | Residual activity KP1790 (KP1790 protease [10]): 88% | Residual activity KP9860 (KP9860 protease [11]): 100%

Na polyoxyethylene alkylsulfate [Na polyoxyethylene alkylsulfate (ES)]
Residual activity KP43 (KP43 protease [9]): 101% | Residual activity KP1790 (KP1790 protease [10]): 102% | Residual activity KP9860 (KP9860 protease [11]): 104%

Na α-olefinsulfonate [Na α-olefinsulfonate (AOS)]
Residual activity KP43 (KP43 protease [9]): 100% | Residual activity KP1790 (KP1790 protease [10]): 111% | Residual activity KP9860 (KP9860 protease [11]): 100%

α-Sulfofatty acid ester [α-Sulfofatty acid ester (α-SFE)]
Residual activity KP43 (KP43 protease [9]): 112% | Residual activity KP1790 (KP1790 protease [10]): 113% | Residual activity KP9860 (KP9860 protease [11]): 105%
